# Data: patent publication US20110263451A1, “BIOLOGICAL MARKERS PREDICTIVE OF RHEUMATOID ARTHRITIS RESPONSE TO LYMPHOTOXIN ANTAGONISTS” (GENENTECH, INC, priority 2008, published 2011)
# System: human CD4′ Th1 cells
# Assay: TAPI-1 effect on soluble cytokines shed into culture supernatant of re-activated Th1 cells
# Format: cell-based
# Experimental: High Bind 96-well microtiter plates (Meso Scale Discovery (MSD), Gaithersburg, Md.) were spotted with 5 uL goat anti-human LTα clone AF211 (R&D Systems) diluted in PBS/0.05% Tween 20 (PBS/Tween) to 2 μg/ml, and incubated for one hour at room temperature. Wells were blocked with 150 uL PBS+5% BSA for 1-2 hours with agitation. Plates were washed 6× with PBS/Tween and a titration curve of recombinant human LTα3 (Genentech Inc.) controls, and test samples diluted in high salt assay diluent (HSAD: PBS, 0.5% BSA, 0.05% Tween 20, 0.25% CHAPS, 5 mM EDTA, 0.20% BgG, 0.35M NaCl, 10% FBS) were added at 25 μl/well and incubated for 2 hours with agitation. […] Plates were washed, 500 ng/mL Strepavidin-Sulgo-TAG® (MSD) diluted in AD was added at 25 μL/well, and plates were incubated for 30 minutes with agitation. Plates were washed with PBS/Tween 6×, and 150 μl/well of Read Buffer T (MSD) diluted 1:2 in H20 was added to wells. Plates were read on an MA6000 Sector™ Imager (MSD) according to manufacturer's. A weighted 4-parameter fit standard curve was plotted using XLFit (Guildford, UK) and values of unknowns were extrapolated.
# Soluble human TNF-α, was detected using a human 96-well TNF-α kit (K111BHA-4, Meso Scale Discovery) according to manufacturer's instructions.
# Total human CD4^+ T cells were isolated from PBMC with a CD4^+ T cell isolation kit (Miltenyi Biotec). Cells were cultured in complete DMEM media (DMEM supplemented with 10% FBS, 2 mM glutamine, 2 μM 2-ME, 1 mM sodium pyruvate, 100 U/ml penicillin and 100 μg/ml streptomycin) in presence of 5 μg/ml anti-CD3 mAb and 2 μg/ml anti-CD28 mAb. Human Th subset polarization conditions were as follows: Th0: 5 μg/ml anti-hIL-12, 5 μg/ml anti-hIFN-γ 1 μg/ml anti-hIL-4; Th1: 1 ng/ml rhIL-12, 10 ng/ml rhIFN-γ, 1 μg/ml anti-hIL-4; Th2: 5 ng/ml rhIL-4, 5 μg/ml anti-hIL-12, 6 μg/ml anti-hIFN-γ; Th17: 10 ng/ml rhIL-23, 10 μg/ml anti-hIL-12, 10 μg/ml anti-hIFN-γ. T cells were re-stimulated with 5 μg/mL anti-CD3 and 2 μg/mL anti-CD28 with indicated amount of TNFα protease inhibitor 1 (TAPI-1) (Peptides International) or DMSO as control.
# At day1 and day2 after re-stimulation, cells were collected for FACS and RNA preparation; culture supernatants were collected for LT and TNF-α quantitation.
# To determine if LTαβ complexes were shed by metalloproteinase cleavage, the TNFα protease inhibitor 1 (TAPI-1), known to inhibit the cleavage of TNFα by ADAM17 protease, was tested on human CD4′ Th1 cells. Culture supernatants were analyzed for solLTαβ, LTα3 and TNFα one day post re-activation in the presence or absence of TAPI-1 (FIGS. 2A & B). T cells were collected, cultured and polarized as in Example 2 above.
# [1] = Th1 cells, 10 or 50 μM TAPI-1, 1 day post re-activation
compound,measurement,setting,value
CC(C)C[C@H](CC(=O)NO)C(=O)N[C@@H](Cc1ccc2ccccc2c1)C(=O)N[C@@H](C)C(=O)NCCN [TAPI-1],increase in cell surface LT,"TAPI-1 treated Th1 cells, FACS, data not shown",not accompanied by an increase in cell surface LT
same,decrease of shed TNFα supernatant concentrations,[1],3-8 fold
same,secreted LTα3 in supernatant,[1],not affected
same,decrease of soluble LTαβ levels in supernatants of re-activated cells,"Th1 cells, 10 or 50 μM TAPI-1, 1 day post re-activation, dose dependent",2-7 fold
